Results on 1 compound are retold here after patent US9220794B2, “Two-photon fluorescent probes for imaging of total sulfide in live cell and tissue, and quantitative estimation of total sulfide concentration using the same” (Korea University Research and Business Foundation, priority 2013, dated 2015).

The nature of test [1]: Kinetic studies in solution: reaction of the probe with sulfide. The source says: The reaction between the compound of [Chemical Formula 2-6] […] For example, the compound of [Chemical Formula 2-6] was synthesized from the reaction of the compound of [Chemical Formula 2-5] and HS^−. Also, precipitation of sulfur or sulfide was reported in the reaction between phenyl azide and Na2S.
This followed pseudo first-order kinetics with kobs=2.89×10^−4 s^−1 (FIG. 1b).
The k2 value calculated from the slope of the plot was 5.13 M^−1s^−1 (measured in HEPES buffer).
Reactions of the compound of [Chemical Formula 2-6] (5 μM) with Na2S (100-500 μM) in HEPES buffer or HEPES/EtOH (1/1, pH 7.2) were followed by monitoring of the increase in the fluorescence of the compound of [Chemical Formula 2-5] at 525-650 nm using a luminescence spectrometer.
The kinetic studies in a TP mode were conducted by the same procedure described above except that the TPEF was collected upon excitation at 750 nm.
In all cases, the plots of −ln(F^∞2−F2) vs. t were linear with good correlations. The kobs values were obtained from the slopes of the plots and the K2 values were obtained from the slopes of the plots of kobs vs. [HS^−]. [HS^−] was calculated by assuming that all of the Na2S was converted to HS^− and H2S, that is, [Na2S]=[H2S]+[HS^−], and using the relationship [H2S]/[HS^−]=[H^+]/Ka=0.794 in HEPES/EtOH (1/1, pH=7.2).

The next test concerns HeLa cells. In words: Kinetic estimation of total sulfide concentration in HeLa cells (TPEF). It counts as cell-based, human. As for the experimental part: To quantitatively estimate the total sulfide concentration in living cells, the TPEF intensity of HeLa cells labeled with the compound of [Chemical Formula 2-6] was monitored in the absence and presence of Na2S, cysteine (Cys) and glutathione (GSH) with 20-30 minute intervals.
Since H2S and HS^− are in equilibrium and [H2S]/[HS^−]=[H^+]/Ka=0.794 in HEPES/EtOH (1/1, pH=7.2), it seems appropriate to present the total sulfide concentration ([H2S]+[HS^−]).
Kinetic experiments in HeLa cells were conducted in the same manner except that TPEF intensities from HeLa cells labeled with the compound of [Chemical Formula 2-6] upon excitation at 750 nm were monitored with 20-30 minute intervals.
The average TPEF intensities at given time and the SB2/SA1 ratio was obtained by dividing the TPEF intensity of [Chemical Formula 2-6] at 390-450 nm by that of [Chemical Formula 2-5] at 525-650 nm in the HeLa cells (FIG. 1b) were used in the kobs calculation.
The kobs value was measured at 10 regions of interest (ROIs) from three independent cell lines.
To evaluate the effect of Na2S, cysteine and GSH, HeLa cells were incubated with the compound of [Chemical Formula 2-6] (2 μM) and then treated with Na2S (100, 300 μM), cysteine (500 μM) and GSH (500 μM) for 30 minutes. The cells were then washed 3 times with FBS-free DMEM and subjected to kinetic measurement.

For test [2], the system named is rat colon tissue. As to the kind of experiment: Ratiometric TPM imaging (F2/F1) of rat colon slices. Type of test: in vivo. Conditions: basal, slices labeled with 20 μM 2-6. As for the experimental part:
The utility of the compound of [Chemical Formula 2-6] was investigated in living tissues from a 5-week-old rat colon. The inventors were particularly interested in the mucosa, muscularis mucosae and submucosa because they are invaded in the early stage of tumor (FIG. 4c). Since it takes a long time to stain the tissues during which they may be deformed, excess amount (20 μM) of the compound of [Chemical Formula 2-6] was used to facilitate staining.
Because the structure of the colon tissue is heterogeneous, TPEF intensities were acquired from 150 sections along the z-direction at a depth of about 90-170 μm using two detection windows (1 and 2) to visualize the overall sulfide distribution.
Therefore, the sections were divided into two regions and they were assigned as mucosa (90-150 μm) and submucosa including the muscularis mucosae (151-170 μm).
(§1) Male Sprague-Dawley rats (235-265 g) were divided into two groups (5-FU and control groups). In the 5-FU group, 150 mg/kg of 5-FU (SoloPak Laboratories, Franklin Park, Ill.) were intraperitoneally injected into the rats. The rats of the control group were injected with saline. Each group consisted of 4 rats.
All the rats were injected between 9 pm and 12 midnight, were allowed free access to food and water and were housed in the same room with 8-hour cycles.
(§2) 8 hours after the intraperitoneal injection, all the rats were sacrificed. Laparotomy was performed after anesthetizing the rats.
Slices were prepared from the colon of the rats. The colon slices were cut into 2-cm long segments, opened by longitudinal incision and then treated with Dulbecco's phosphate-buffered saline (D-PBS; […]).
The colon slices were incubated with the compound of [Chemical Formula 2-6] (20 μM) in D-PBS bubbled with 95% O2 and 5% CO2 at 37° C. The colon slices were then moved to glass-bottomed dishes, washed 3 times with D-PBS and observed under a confocal multiphoton microscope.
TPEF intensities were collected using detection windows of 390-450 nm and 520-650 nm, with 110 sections at a depth of 90-150 μm (mucosa) and 40 sections at a depth of 151-170 μm (submucosa).
Then ratiometric images were constructed from the TPEF intensities collected using the two detection window. The F2/F1 ratio was expressed as mean±SD and p was set to be smaller than 0.05.

For test [3], the system named is rat colon tissue. In words: Kinetic measurement of total sulfide in rat colon tissue slices. It counts as in vivo. The conditions noted are these: before 5-FU treatment; for total sulfide concentration in colon tissue: probe 2-6; for kobs in colon tissue: tissue labeled with 2-6. The method, then: To quantitatively estimate the total sulfide concentration, kinetic experiments were performed in the colon tissue labeled with the compound of [Chemical Formula 2-6].
as §1, §2
Kinetic experiments in rat colon tissue were performed using four colon slices obtained from four rats. Two sets of experiments were performed for each slice. In each set, TPEF intensities from 8 ROI's/section were collected at depths of 90-150 μm (mucosa) and 151-170 μm (submucosa) in the colon tissue labeled with the compound of [Chemical Formula 2-6] and averaged.
The rate constant (kobs) was measured from 7 and 3 sections of the mucosa and submucosa tissues, respectively, in order to obtain 112 kobs and 48 kobs values, respectively. The rate constant (kobs) was expressed as mean±SD and p was set to be smaller than 0.05.

Consider `COCCOCCC1(CCOCCOC)c2cc(NC(=O)OCc3ccc(N=[N+]=[N-])cc3)ccc2-c2ccc(-c3nc4ccccc4s3)cc21` [Chemical Formula 2-6], for which the “k2, second-order rate constant of reaction with HS^−” value in test [1] (HEPES buffer, slope of kobs vs. [HS^−]) is 5.13 M⁻¹ s⁻¹; in test [1] (HEPES/EtOH (1/1, pH=7.2), calculated using pKa (H2S)=7.10), 5.17 M⁻¹ s⁻¹. Moreover, the “influence of p-dinitrobenzene (electron acceptor) on kobs” value in test [1] (addition of p-dinitrobenzene) is on record as “not influenced”. For the same compound, the “kobs, pseudo first-order rate constant” value in test [1] (probe 5 μM + 100 μM Na2S, HEPES buffer, 37° C.) was found to be 0.000289 s⁻¹. In addition, the “kobs in labeled HeLa cells” value with HeLa cells (HeLa cells labeled with 2-6, no additive) was 0.0 ± 0.1 s⁻¹. In the test with HeLa cells (no additive, probe 2-6), the “total sulfide concentration ([H2S]+[HS^−]) in HeLa cells” value was 0.0 ± 0.1 µM. For the same compound, the “average emission ratio F2/F1” value stood at 0.82±0.07 with rat colon tissue [2] (mucosa (90-150 μm)) and 0.67±0.07 in the test with rat colon tissue [2] (submucosa (151-170 μm)). The “total sulfide concentration in colon tissue” value came to 7.0 ± 2.7 µM with rat colon tissue [3] (mucosa) and 3.8 ± 1.4 µM with rat colon tissue [3] (submucosa). Besides, the figures for the “kobs in colon tissue” value in the test on rat colon tissue [3] (mucosa) and with rat colon tissue [3] (submucosa) were “(2.0±0.8)×10^−5 s^−1” and “(1.1±0.5)×10^−5 s^−1”, respectively.
